Measured values: patent US20250353873A1, “COMPOUNDS AND METHODS FOR MODULATING APOE EXPRESSION” (Ionis Pharmaceuticals, Inc., priority 2024, published 2025)
Where “and” joins values, the source holds several entries; their conditions need not be identical. Equal values may be shown once. Strand notation (5' to 3'): a small letter for the sugar, then the base; units joined by * are phosphorothioate-linked, units joined directly phosphodiester-linked; [ ] holds rarer units or linkages, { } end groups; capitals alone tell only the bases. [PN] = cyclic guanidine phosphoramidate internucleoside linkage; [ms] = mesyl phosphoramidate linkage; e = 2'-O-(2-methoxyethyl) (MOE); k = constrained ethyl (cEt); [5mC] = 5-methylcytosine; d = 2'-deoxy (DNA)

Experiments:
human APOE RNA [1] = test: Activity in APOE C57BL/6NTac-Apoeem7250 knock-in mice, single ICV bolus, 8 weeks (Example 11); type: in vivo; settings: single ICV bolus 300 μg, 8 weeks post treatment, normalized to mouse Ppia
How it was run: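 Human APOE knock-in C57BL/6NTac mice given one ICV bolus of 300 μg oligonucleotide; PBS-dosed group as control. At 8 weeks, cortex and spinal cord RNA measured by qRT-PCR (human probe RTS3073), normalized to mouse Ppia, expressed as % of PBS control.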

human APOE RNA [2] = test: Activity in APOE C57BL/6NTac-Apoeem7250 knock-in mice, single ICV bolus, 16 weeks (Example 12); type: in vivo; settings: single ICV bolus 300 μg, 16 weeks post treatment, normalized to mouse Ppia
How it was run: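 Knock-in mice (3-4 per group) received one ICV bolus of 300 μg oligonucleotide, PBS as control. After 16 weeks, human APOE RNA in cortex and spinal cord measured by RT-qPCR, normalized to mouse Ppia, and reported as % of PBS control.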

human APOE RNA [3] = test: Duration of action study in APOE C57BL/6NTac-Apoeem7250 knock-in mice (Example 16); type: in vivo; settings: 300 μg ICV
Method: Modified oligonucleotides described above were tested in the APOE C57BL/6NTac-Apoeem7250 knock-in mouse model described above.
APOE C57BL/6NTac-Apoeem7250 knock-in mice were divided into groups of 2-4 mice each. Each mouse received a single intracerebroventricular (ICV) bolus of 300 μg of modified oligonucleotide. A group of 2-4 mice received a single ICV bolus with PBS as a negative control.
Mice were sacrificed at various timepoints as indicated in the table below and RNA was extracted from cortical brain tissue and spinal cord for quantitative real-time RT-PCR analysis of RNA expression of APOE using primer probe set RTS3073 (described herein above). APOE RNA levels were normalized to mouse Ppia. Mouse Ppia was amplified using primer probe set m_cyclo24 (described herein above). Results are presented as percent human APOE RNA relative to the amount of human APOE RNA in PBS treated animals, (% control). Each experiment is identified in separate tables below.

human APOE RNA [4] = test: Dose-dependent inhibition of human APOE RNA in HepG2 cells, electroporation, 50,000 cells per well, RT-PCR normalized to GAPDH (Example 4, Tables 8-10); type: cell-based; settings: HepG2, electroporation, 24-hour treatment
How it was run: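 HepG2 cells, 50,000 per well, electroporated with modified oligonucleotide at various concentrations. APOE RNA quantified by RT-PCR with human primer probe set RTS3073, normalized to GAPDH. Values are percent APOE RNA relative to untreated control cells.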

human APOE RNA [5] = test: Activity in APOE C57BL/6NTac-Apoeem7250 knock-in mice, single ICV bolus, 4 weeks (Example 10); type: in vivo; settings: single ICV bolus 300 μg, 4 weeks post treatment, normalized to mouse Ppia
How it was run: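 Knock-in mice (2–4 per group) received one 300 μg ICV bolus of oligonucleotide or PBS. After four weeks, human APOE RNA in cortex and spinal cord measured by RT-qPCR (primer probe set RTS3073), normalized to mouse Ppia, expressed as % of PBS controls.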

| Substance | APOE RNA (% control) Cortex (human APOE RNA [3]; 14 days post-dose) [% control] | APOE RNA (% control) Cortex (human APOE RNA [3]; 112 days post-dose) [% control] | APOE RNA (% control) Spinal Cord (human APOE RNA [3]; 14 days post-dose) [% control] | APOE RNA (% control) Spinal Cord (human APOE RNA [3]; 112 days post-dose) [% control] | APOE RNA (% UTC) (human APOE RNA [4]; 5 nM) | APOE RNA (% UTC) (human APOE RNA [4]; 13 nM) | APOE RNA (% UTC) (human APOE RNA [4]; 33 nM) | APOE RNA (% UTC) (human APOE RNA [4]; 82 nM) | APOE RNA (% UTC) (human APOE RNA [4]; 205 nM) | APOE RNA (% UTC) (human APOE RNA [4]; 512 nM) | APOE RNA (% UTC) (human APOE RNA [4]; 1,280 nM) | APOE RNA (% UTC) (human APOE RNA [4]; 3,200 nM) | APOE RNA (% UTC) (human APOE RNA [4]; 8,000 nM) | APOE RNA (% UTC) (human APOE RNA [4]; 20,000 nM) | IC50 (human APOE RNA [4]) [nM] | APOE RNA (% control) Cortex (human APOE RNA [5]) [% control] | APOE RNA (% control) Spinal Cord (human APOE RNA [5]) [% control] | APOE RNA (% control) Cortex (human APOE RNA [3]; 140 days post-dose) [% control] | APOE RNA (% control) Spinal Cord (human APOE RNA [3]; 140 days post-dose) [% control] | other results |
| --- | --- | --- | --- | --- | --- | --- | --- | --- | --- | --- | --- | --- | --- | --- | --- | --- | --- | --- | --- | --- |
| 1652901: 6-10-4 MOE gapmer TTGGTGAATCTTTATTAAAC, linkages sooooossssssssssoss (antisense eT*eTeGeGeTeGdA*dA*dT*d[5mC]*dT*dT*dT*dA*dT*dT*eAeA*eA*e[5mC]) [compound 1652901] | 43 | 90 | 33 | 51 | – | – | – | – | – | – | – | – | – | – | – | – | – | – | – | APOE RNA (% control) Cortex (human APOE RNA [1]; cortex): 47 % control and 49 % control; APOE RNA (% control) Spinal Cord (human APOE RNA [1]; spinal cord): 18 % control and 27 % control; APOE RNA (% control) Cortex (human APOE RNA [2]; cortex): 104 % control; APOE RNA (% control) Spinal Cord (human APOE RNA [2]; spinal cord): 61 % control |
| 1721305: 6-10-4 MOE gapmer TTGGTGAATCTTTATTAAAC, linkages s[pn][pn][pn]oossssssssss[pn]ss (eT*eT[PN]eG[PN]eG[PN]eTeGdA*dA*dT*d[5mC]*dT*dT*dT*dA*dT*dT*eA[PN]eA*eA*e[5mC]) [compound 1721305] | 52 | 81 | 37 | 40 | – | – | – | – | – | – | – | – | – | – | – | – | – | – | – | – |
| 1721306: 6-10-4 MOE gapmer TTGGTGAATCTTTATTAAAC, linkages s[pn][pn][pn]oosssssszzss[n]ss (as printed) (sugars from the 5' end e6 d10 e4, all C 5-methyl, backbone not given here; further chemistry not fully specified) [compound 1721306] | 58 | 89 | 63 | 60 | – | – | – | – | – | – | – | – | – | – | – | – | – | – | – | – |
| 1721307: 6-10-4 MOE gapmer CTTGGTGAATCTTTATTAAA, linkages s[pn][pn][pn]oossssssssssoss (e[5mC]*eT[PN]eT[PN]eG[PN]eGeTdG*dA*dA*dT*d[5mC]*dT*dT*dT*dA*dT*eTeA*eA*eA) [compound 1721307] | 38 | 73 | 31 | 34 | – | – | – | – | – | – | – | – | – | – | – | – | – | – | – | – |
| 1721308: 6-10-4 MOE gapmer CTTGGTGAATCTTTATTAAA, linkages s[pn][pn][pn]oossssssszzsoss (e[5mC]*eT[PN]eT[PN]eG[PN]eGeTdG*dA*dA*dT*d[5mC]*dT*dT*dT[ms]dA[ms]dT*eTeA*eA*eA) [compound 1721308] | 48 | 85 | 45 | 42 | – | – | – | – | – | – | – | – | – | – | – | – | – | – | – | – |
| 1721309: 6-10-4 MOE gapmer CTTGGTGAATCTTTATTAAA, linkages s[pn][pn][pn]oossssssssss[pn]ss (e[5mC]*eT[PN]eT[PN]eG[PN]eGeTdG*dA*dA*dT*d[5mC]*dT*dT*dT*dA*dT*eT[PN]eA*eA*eA) [compound 1721309] | 45 | 93 | 34 | 39 | – | – | – | – | – | – | – | – | – | – | – | – | – | – | – | – |
| 1721310: 6-10-4 MOE gapmer CTTGGTGAATCTTTATTAAA, linkages s[pn][pn][pn]oossssssszzs[pn]ss (e[5mC]*eT[PN]eT[PN]eG[PN]eGeTdG*dA*dA*dT*d[5mC]*dT*dT*dT[ms]dA[ms]dT*eT[PN]eA*eA*eA) [compound 1721310] | 35 | 88 | 38 | 65 | – | – | – | – | – | – | – | – | – | – | – | – | – | – | – | – |
| 1746789 (k[5mC]*dT[ms]kT*dG[ms]kG*dT[ms]dG[ms]dA[ms]dA[ms]dT*d[5mC]*dT*dT*dT*dA[ms]dT*kT*kA*dA[ms]kA; antisense) [Compound 1746789] | – | 63 | – | 83 | 98 | 106 | 84 | 102 | 76 | 64 | 37 | 19 | 10 | 4 | 830 | 60 | 41 | 75 | 80 | – |
| 1746790 (k[5mC]*dT[ms]kT*dG[ms]dG[ms]kT*dG[ms]dA[ms]dA[ms]dT*d[5mC]*dT*dT*dT*dA[ms]dT*kT*kA*dA[ms]kA; antisense) [Compound 1746790] | – | 75 | – | 62 | 104 | 133 | 94 | 112 | 89 | 63 | 20 | 24 | 15 | 8 | 750 | 53 | 61 | 77 | 108 | – |
| 1746801 (k[5mC]*dT[ms]dT[ms]kG*kG*dT[ms]dG[ms]dA[ms]dA[ms]dT*d[5mC]*dT*dT*dT*dA[ms]dT*kT*dA[ms]kA*kA; antisense) [Compound 1746801] | – | 47 | – | 70 | 93 | 98 | 114 | 99 | 76 | 56 | 33 | 11 | 14 | 2 | 670 | 58 | 44 | 67 | 138 | – |
| 1746803 (k[5mC]*dT[ms]dT[ms]kG*dG[ms]kT*dG[ms]dA[ms]dA[ms]dT*d[5mC]*dT*dT*dT*dA[ms]dT*kT*dA[ms]kA*kA; antisense) [Compound 1746803] | – | 54 | – | 74 | 93 | 83 | 84 | 114 | 68 | 61 | 31 | 29 | 22 | 39 | 1100 | 51 | 39 | 73 | 82 | – |
